This is an account of results in publication PMC11242993, “Evaluation of the Therapeutic Potential of Sulfonyl Urea Derivatives as Soluble Epoxide Hydrolase (sEH) Inhibitors” (Molecules, 2024).

The subject of one data set is Caco-2 cells. Briefly: Caco-2 permeability. Type of data set: in vitro ADME. The procedure: Caco-2 cells were cultured in 75 cm^2 flasks to 80–90% confluence according to the ATCC and Millipore recommendations in a humidified atmosphere at 37 °C and 5% CO2. Cells were detached with a trypsin/EDTA solution, resuspended in the complete medium containing DMEM high glucose ([…]) with L-glutamine (4 mM) supplemented with 10% heat-inactivated Fetal Bovine Serum, 1% non-essential amino acids, and 730 nM puromycin, and seeded at a density of 5 × 10^5 cells in a 75 cm^2 flask. After 5 days, cells were trypsinized and resuspended in the complete medium to a final concentration of 600 × 10^3 cells/mL. Of the cell suspension, 400 µL was added to each well of an HTS 24-Multiwell Insert System and 25 mL of prewarmed complete medium was added to the feeder tray. Caco-2 cells were incubated in the Multiwell Insert System for 6–10 days before the transport experiments. The medium in the filter plate and feeder tray was refreshed every other day. Prior to the transport experiment, the integrity of the monolayer was verified by measuring the transepithelial electrical resistance (TEER) for every well using a Millicell-ERS system ohm meter. The final TEER values were within the range of 150–600 Ω × cm^2, as required for the assay conditions. The 24-well insert plate was removed from its feeder plate and placed in a new sterile 24-well transport analysis plate. The inserts were washed with PBS after medium aspiration. Ketoprofen, atenolol, digoxin, and quinidine were used as reference compounds.
To determine transport rates in the basolateral (B)-to-apical (A) direction, 1000 μL of the test compound solutions was added into the wells of the transport analysis plate, and the wells in the filter plate were filled with 300 μL of buffer (apical compartment).
The effect of the inhibitor on the Pgp-mediated transport of the tested compounds was assessed by determining the bidirectional transport in the presence or absence of verapamil. The Caco-2 cells were preincubated for 30 min at 37 °C with 100 μM of verapamil in both apical and basolateral compartments. After removal of the preincubation medium, the test compounds with verapamil (100 μM) in transport buffer were added in donor wells, while the receiver wells were filled with the appropriate volume of transport buffer with 100 μM of verapamil. The final amounts of test and reference compounds were 10 μM each. The plates were incubated for 90 min at 37 °C under continuous shaking at 100 rpm. Aliquots of 75 μL were taken from the donor and receiver compartments for LC–MS/MS analysis. All samples were mixed with 2 volumes of acetonitrile followed by protein sedimentation by centrifuging at 10,000 rpm for 10 min. Supernatants were analyzed using the HPLC system coupled with a tandem mass spectrometer.
(In general: Caco-2 monolayers are a common model of the intestinal barrier.)

The test system of another data set is C57BL/6J male mice. The experiment in a line: Hot plate model. The data set is classed as in vivo. The settings on record: 10 mg/kg i.p. The protocol: Thermal nociception in the hot plate test was assessed with a commercially available apparatus (Hotplate Analgesia Meter, Columbus Instruments) consisting of a metal plate to a constant temperature of 55.0 ± 0.1 °C. Mice were put into the hot plate testing instrument to adapt for at least 15 min. The device was connected to a manually operated timer that recorded the amount of time the mouse spent on the heated surface before showing signs of nociception (e.g., licked its paws or jumped), the cut-off time was 60 s. The baseline (basic pain threshold, the response was more than 25 s, and the jumping mice were excluded.) was calculated as the mean of three readings recorded before testing at intervals of 15 min. The time course of latency was then determined at 15, 30, 45, 60, 90, and 120 min after compound treatment. Data were analyzed as time-course curves of the percentage of maximum effect MPE% = (post drug latency − baseline latency) × 100/(cut-off time − baseline latency). C57BL/6J male mice obtained from The Jackson Laboratory (Bar Harbor, ME, USA) weighing 28 g were used for the hot plate test. Animal procedures were conducted following the rules and regulations of the Institutional Animal Care and Use Committee of the National Institute on Alcohol Abuse and Alcoholism (NIAAA) under the protocols of LPS-GK1.

For another data set, the system named is mice. Briefly: LPS-induced acute lung injury (ALI) model. Type of data set: in vivo. The settings on record: 10 mg/kg i.p. The protocol:
LPS-induced acute lung injury induced by a single oropharyngeal instillation of lipopolysaccharide (LPS) (50 µg/mouse) in 16-week-old mice as described previously. Briefly, LPS (L4391, MilliporeSigma, Burlington, MA, USA) was dissolved in sterile saline and administered at 50 µg/mouse in 40 µL after anesthesia induced by ketamine/xylazine. The mice were studied 24 h after LPS or saline instillation.
BALF was collected from anesthetized mice by lavaging lungs two times with 0.8 mL Hanks’ balanced salt solution without calcium and magnesium (HBSS) (Sigma-Aldrich, St. Louis, MI, USA). Supernatants were collected as BALF for further analyses.
The number of cells in the BALF was estimated using an automated cell counter, the Countess II FL cell counter (Thermo Fisher Scientific Inc., Waltham, MA, USA).
Albumin levels were measured by the Mouse Albumin Elisa Assay kit (Cat # E99-134), which was obtained from Bethyl Laboratories. BALF samples from the LPS group were diluted at a 1:2000 ratio.
Total protein in BALF samples was measured using the Pierce BCA protein assay kit (Cat # 23225) as detailed in the product manual (Thermo Fisher Scientific).
The right middle lobe was immediately placed in an RNA later solution and stored at −80 °C until the RNA extraction procedure. RNA extraction was performed using RNeasy Mini Kits from Qiagen (Valencia, CA, USA). One microgram of total RNA was reverse transcribed to cDNA using an iScript cDNA synthesis kit (Bio-Rad, Hercules, CA, USA). Expression of the target genes was quantified using gene-specific primers and PowerSYBRGreen master mix (Thermo Fisher Scientific) in a QuantStudio 3 Real-Time PCR instrument (Thermo Fisher Scientific). Predesigned mouse IL-6 (QT00098875), TNF-α (QT00104006), IL-1β (QT01048355), CXCL1 (QT00115647), CCL2 (QT00167832), CXCL3 (QT00151599) and CXCL9 (QT00097062) primers were purchased from Qiagen (Valencia, CA, USA). Fold changes in gene expression relative to the housekeeping gene TATA-Box Binding Protein (Tbp, QT00198443) were determined. Gene expression values were calculated based on the […] method.

The structures appear in SMILES notation. “Also recorded” adds a separate entry of the source.

For `O=C(NC12CC3CC(CC(C3)C1)C2)NS(=O)(=O)c1ccc(OC(F)(F)F)cc1` [Compound 4f], in the data set with Caco-2 cells, the “Pgp substrate status from Caco-2 efflux ratio” value is recorded as “not Pgp substrates” and the “brain penetrability judged from Caco-2 permeability” value is on record as “brain penetrable”. In addition, the “analgesic effect in hot plate assay” value in the data set with C57BL/6J male mice was “none of the sEH inhibitors, including AUDA, showed any analgesic effect”. In the data set on mice, the “effect on LPS-induced increase in total protein in BALF” value is “neither AUDA nor novel sEH inhibitors’ (4f and 4l) effect”; the “number of cells in bronchoalveolar lavage (BAL)” value is “similarly attenuated the number of cells in BAL”. In the data set with mice (qPCR), the “LPS-induced lung gene expression of interleukin 1B (IL-1B)” value is recorded as “attenuated”; the “lung gene expression of CCL-2” value is “more pronounced in reducing IL-6 and CCL-2 expressions”; the “lung gene expression of CXCL1” value is given as “similarly attenuated”. Further, the “LPS-induced lung gene expression of interleukin 6 (IL-6)” value with mice (qPCR, 10 mg/kg) was “attenuated; also recorded: more pronounced in reducing IL-6 and CCL-2 expressions”.

For `O=C(NC12CC3CC(CC(C3)C1)C2)NS(=O)(=O)c1ccc2ccccc2c1` [Compound 4l], the “brain penetrability judged from Caco-2 permeability” value in the data set with Caco-2 cells was “brain penetrable”. The “analgesic effect in hot plate assay” value in the data set with C57BL/6J male mice is recorded as “none of the sEH inhibitors, including AUDA, showed any analgesic effect”. Moreover, the “effect on LPS-induced increase in total protein in BALF” value in the data set on mice was “neither AUDA nor novel sEH inhibitors’ (4f and 4l) effect”. Further, in the data set with mice (qPCR), the “LPS-induced lung gene expression of interleukin 1B (IL-1B)” value is “had no effect on reducing these” and the “LPS-induced lung gene expression of interleukin 6 (IL-6)” value is on record as “had no effect on reducing these”.
